Data taken from patent US20240094229A1, “CRISPR-CAS /TRANSCRIPTION FACTOR-BASED COMPETITION ASSAY FOR DETECTION OF MOLECULAR ANALYTES” (Arizona Board of Regents on Behalf of Arizona State …, priority 2022, published 2024).
Values joined by “and” are separate entries in the source; they are usually repeats but may differ in a detail not shown here. Equal values may be shown once. Where a name gives a salt, the structure may show the parent alone.

Key:
CymR = molecular target: T1, CymR (Pseudomonas putida, UniProt O33453, A171V/S110G); assay type: biochemical; conditions: CymR biosensor, slope of kinetic curves
T1 construct: His tag; made in house
T1 sequence (O33453 whole entry S110G/A171V): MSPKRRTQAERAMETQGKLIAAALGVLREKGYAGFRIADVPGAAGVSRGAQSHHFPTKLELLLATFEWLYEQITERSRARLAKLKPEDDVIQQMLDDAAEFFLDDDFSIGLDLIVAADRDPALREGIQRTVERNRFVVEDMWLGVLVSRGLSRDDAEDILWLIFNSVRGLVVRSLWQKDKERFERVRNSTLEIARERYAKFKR
Procedure: (§1) Target and nontarget strands (NTS) were annealed at a 1:2 ratio in 1× TAE+12.5 mM Mg^2+ for 5 minutes at 95° C., then snap cooled. To form the DNA/TF complex, 100 nM dsTarget complexes were incubated with 10 μM corresponding transcription factors (unless otherwise stated) for 15 minutes at 37° C. in incubation buffer (40 mM Tris-HCl 8 mM MgCl2, 20 mM NaCl, pH 8). Small molecules were added next, following the same incubation procedure. Prior to addition, small molecules were suspended in water, DMSO or ethanol.
(§2) To monitor small molecule detection, 2 μl of the DNA/TF or DNA/TF/SM mixture were added to 10 μl total Cas12a cleavage reaction. […] Cleavage reactions were then immediately added to a microplate such as a Corning 384-well Black Flat Bottom Plates and read on a SynergyNeo2 Biotek fluorescence plate reader. Fluorescence measurements were taken with 487 nm excitation, 528 nm emission from the bottom of the plate for 2 hours. Fluorescence curves show raw fluorescence images unless otherwise stated.
(§3) Dose response curves were fit on OriginLab graphing software using equation 1. A1 is the minimum asymptote, A2 is the maximum asymptote, X is the log of a given dosage, and p is the hill slope. The center of the curve is equal to Log x0, so the half response or EC 50=10^Logx0.

TetR [1] = molecular target: T2, TetR (Escherichia coli, UniProt P04483); assay: TetR biosensor, Cas12a cleavage reaction with fluorescence readout, detection of aTc and Doxy; assay type: biochemical
T2 construct: His tag; made in house; host or cells: E. coli BL21 Star (DE3)
T2 sequence (P04483 whole entry): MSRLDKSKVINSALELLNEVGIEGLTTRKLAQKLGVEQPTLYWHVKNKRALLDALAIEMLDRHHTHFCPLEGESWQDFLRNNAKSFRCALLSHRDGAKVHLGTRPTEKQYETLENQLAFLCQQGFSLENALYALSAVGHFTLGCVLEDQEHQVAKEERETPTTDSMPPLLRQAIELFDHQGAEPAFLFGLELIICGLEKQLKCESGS
Procedure: as §1, §2, §3
The limit of detection for the biosensor was tested by introducing a range of small molecules from 4 nM to 40 μM using a 50:1 TetR dimer/dsDNA ratio (FIGS. 3E and F). […] The dose response curve of the biosensor was further assessed using the EC 50 value, which represents the concentration of a drug or analyte needed to reach a half maximum output signal based on a protein-analyte interaction.
Detection limits were also considered using the standard definition of LOD which considers LOD to be equal to the fluorescence of the blank sample plus three times the standard deviation (Table 7 and Table 8). The detection limit was determined using the equation (39):
Here, Sbl is equal to the mean of the SM negative samples and kSbl is the number of standard deviations of the negative sample added. For the Doxy experiments, 8 replicates were run and k=3. […] The detection limit (bolded) was then determined as the lowest concentration corresponding to a fluorescence signal great than Sm (the mean of small molecule negative samples+3× the standard deviation).

TetR [2] = molecular target: T2, TetR; assay: TetR biosensor, lateral flow readout; assay type: biochemical; conditions: for second (test) band on lateral flow strip: TetR biosensor, 20-nt gRNA, 30 minutes cleavage
Procedure: (§4) DNA/TF/small molecule samples were incubated and added to Cas12a reactions containing 106 nM Cas12a, 100 nM gRNA, and 200 nM FAM-[…]-Biotin (SEQ ID NO: 38) or 5′FAM-TTTT(internal T-Biotin)TTTTT-BHQ1 (SEQ ID NO: 38) reporter (IDT). The Cas12a concentration was increased to speed up the reaction time. Samples were incubated for 30 minutes at 37° C. on a thermocycler block. The 10 μl samples were added directly to the dipstick, HybriDetect Universal Lateral Flow Assays from Milenia Biotec (MGHD1) and placed in 100 μl of LF running buffer containing 50% PEG 800. PEG was used to slow capillary flow down, giving reporter strands more time to interact with gold nanoparticle-antibody conjugates before flowing down the assay. This provided cleaner negative results. After 2 minutes, dipsticks were removed and imaged using a cellphone camera.
The trans-cleavage capabilities of Cas12a can cleave any single-stranded DNA in the system, enabling a variety of chemical modifications to be used in the single-stranded reporter. This feature allows for implementation of a visible paper-based lateral flow readout system using reporters with FAM and biotin modifications on either end (19, 21-26). When paired with a lateral flow assay, the fully intact reporter binds to the first line (control line) along with an attached gold nanoparticle/antibody complex, and can be visualized, as shown in FIG. 10. When Cas12a enzyme is active, the reporter is cleaved and the portion containing the gold nanoparticle flows down the assay and can be visualized by the formation of the second band. Thus, the presence of two bands is used to indicate the presence of the target small molecule.
Next, the lateral flow readout was tested by introducing aTc, Doxy, and IPTG to the TetR biosensor. The samples were incubated with Cas12a cleavage mixture containing the 20-nt gRNA. […] Thus, the lateral flow assay can provide a visual readout mechanism for the biosensor, and the assay remains small-molecule specific.
To ensure the biosensor could provide adequate sensitivity, limit of detection experiments were repeated using TetR for detecting aTc and Doxy on the lateral flow assays.

MphR = MphR biosensor, lateral flow readout for erythromycin; assay type: biochemical; conditions: 15 minutes of cleavage
Procedure: as §4, with “Samples were incubated for 30 minutes at 37° C. on a thermocycler block.” left out
The robustness of the lateral flow readout scheme was further tested using the TF MphR to detect the antibiotic erythromycin. […] A closer look at the mean pixel intensity of the bands for the assays for 1, 0.5, 0.25, 0.05 μM and no SM confirm a decrease below 1 μM but show a readable signal in the ˜100 nM range (FIG. 14B). Lateral flow readout was also tested using the LacI-IPTG biosensor. A higher ratio between the IPTG+ and − samples were seen even with high concentrations of Lad, but a discernible difference in SM+ samples was still visualized (FIG. 15).

Cas12a = assay: Toxicity study for DMSO on Cas12a activation; assay type: biochemical, Lachnospiraceae bacterium; conditions: 0.03% DMSO
Procedure: The toxicity of solvents on Cas12a activation was tested by titrating in DMSO and monitoring the fluorescence output over two hours. A more significant decrease in activation was observed above 1% DMSO.

[3] = EC 50, 10 μM TetR, 50:1 TetR dimer/dsDNA ratio, small molecule 4 nM to 40 μM
[4] = EC:50, 5 nM dsDNA, 500 nM TF (TetR), 24 nt gRNA, 1 h
[5] = EC:50, 50 nM dsDNA, 5 μM TF (TetR), 20 nt gRNA, 30 minutes of cleavage
[6] = EC:50, 50 nM dsDNA, 5 μM TF (TetR), 24 nt gRNA, 1 h
[7] = EC:50, 100 nM dsDNA, 2 μM TF (TetR), 1 h
[8] = EC:50, 100 nM dsDNA, 10 μM TF (TetR), 1 h, 50-fold TetR dimer:DNA
[9] = EC:50, 100 nM dsDNA, 20 μM TF (TetR), 1 h
[10] = 10 μM TetR, 50:1 TetR dimer/dsDNA ratio

Compound	EC50 (TetR [1]; [3])	EC50 (TetR [1]; [4])	EC50 (TetR [1]; [5])	EC50 (TetR [1]; [6])	EC50 (TetR [1]; [7])	EC50 (TetR [1]; [8])	EC50 (TetR [1]; [9])	EC50 (TetR [2])	second (test) band on lateral flow strip (TetR [2])	other results
CC(C)c1ccc(C(=O)O)cc1 [cuminic acid]										linear region of cleavage rate vs SM concentration (calibration curve) (CymR): ≤ 50 µM
C[C@H]1c2cccc(O)c2C(=O)C2=C(O)[C@]3(O)C(=O)C(C(N)=O)=C(O)[C@@H](N(C)C)[C@@H]3[C@@H](O)[C@@H]21 [Doxy, doxycycline]	0.766 µM	0.087 µM and 0.088 µM	0.43 µM	1.59 µM	0.11 µM	0.95 µM	4 µM and 4.22 µM	0.027 µM		
CC[C@H]1OC(=O)[C@H](C)[C@@H](O[C@H]2C[C@@](C)(OC)[C@@H](O)[C@H](C)O2)[C@H](C)[C@@H](O[C@@H]2O[C@H](C)C[C@H](N(C)C)[C@H]2O)[C@](C)(O)C[C@@H](C)C(=O)[C@H](C)[C@@H](O)[C@]1(C)O [Erythromycin]										concentration range with readable signal (mean pixel intensity) (MphR): ~100 nM
Cc1c2c(c(O)c3c(O)cccc13)C(=O)[C@]1(O)C(=O)C(C(N)=O)=C(O)[C@@H](N(C)C)[C@@H]1C2 [aTc, anhydrotetracycline-HCl]	4.23 µM	0.05 µM	1.51 µM	1.77 µM	0.84 µM	4.42 µM	10.6 µM	0.38 µM	strong second band	concentration at complete loss of signal (TetR [1]; [10]): 0.4 µM; concentration giving maximum (near maximum) fluorescence output (TetR [1]; [10]): 10 µM; Fluorescence Mean (TetR [1]; 20 nt gRNA, Concentration 0.005 (unit not given)): 21303.25; Fluorescence Mean (TetR [1]; 20 nt gRNA, Concentration 0.01 (unit not given)): 21302; Fluorescence Mean (TetR [1]; 20 nt gRNA, Concentration 0.05 (unit not given)): 24918.25; Fluorescence Mean (TetR [1]; 20 nt gRNA, Concentration 0.1 (unit not given)): 32806; Fluorescence Mean (TetR [1]; 20 nt gRNA, Concentration 1 (unit not given)): 40622.5; Fluorescence Mean (TetR [1]; 24 nt gRNA, Concentration 0.005 (unit not given)): 9199.5; Fluorescence Mean (TetR [1]; 24 nt gRNA, Concentration 0.01 (unit not given)): 8795; Fluorescence Mean (TetR [1]; 24 nt gRNA, Concentration 0.05 (unit not given)): 12129.5; Fluorescence Mean (TetR [1]; 24 nt gRNA, Concentration 0.1 (unit not given)): 20059; Fluorescence Mean (TetR [1]; 24 nt gRNA, Concentration 1 (unit not given)): 30309.5; EC50 (TetR [1]; EC:50, 5 nM dsDNA, 500 nM TF (TetR), 20 nt gRNA, 30 minutes of cleavage): 0.051 µM; concentration showing a discernible signal (TetR [2]; lateral flow, 30 minutes of cleavage): 400 nM
CC(C)S[C@@H]1O[C@H](CO)[C@H](O)[C@H](O)[C@H]1O [IPTG, isopropyl β-D-1-thiogalactopyranoside]									little to no banding	
C[S+](C)[O-] [DMSO]										effects on Cas12a cleavage at experimental levels (Cas12a): not detrimental
